Publication PMC9465256, “Discovering monoacylglycerol lipase inhibitors by a combination of fluorogenic substrate assay and activity-based protein profiling” (Frontiers in Pharmacology, 2022)
pIC50: −log10 of the molar value. “Also recorded” adds a separate entry of the source. Each block holds one compound with its values, some of them ahead of it.

What was measured:
[1] = system: endogenous MAGL in cancer cells; assay: Competitive ABPP in cancer cell lysates: MAGL band; assay type: biochemical; settings: 10 μM preincubation, cancer cell lysates
Procedure: (§1) To identify the potential off-targets of the compounds with anti-cancer activities, ABPP was applied. Cancer cells were seeded in the dishes and were washed with PBS, scraped, centrifugated (3,000 × g, 3 min) and pellets snap frozen in liquid in nitrogen. For ABPP experiments, the cell pellets were lysed by probe sonication (3 × 10 bursts) in PBS, followed by the determination of protein concentration of the intact cell lysate by Qubit assay. […] The reactions were then quenched by 10 µl sample buffer (×4). The obtained samples were directly loaded and resolved on SDS-PAGE gel (10% acrylamide). The gel-based ABPP results were then scanned and analyzed using a ChemiDoc MP system (Cy3 settings, BioRad).

A431 cells = assay: Cell viability assay (CCK-8), A431; assay type: cell-based; settings: A431, 48 h, CCK-8
Procedure: (§2) Various cancer cell lines, including human colon cancer cell line HT-29, ovarian cell line OVCAR-3, melanoma cell line B16-F10, skin squamous cancer cells A431, cervical cancer cells Hela, lung cancer cell lines A549, H1975, and HCC827, were purchased from American type culture collection (ATCC). A431, H1975, B16-F10, OVCAR-3, HT-29, HCC827, Hela, and A549 cells were cultured in Dulbecco’s modified Eagle medium (DMEM, Gibco) containing 10% fetal bovine serum (FBS, Gibco), penicillin (100 U/ml) and streptomycin (100 μg/ml). All cell lines were maintained in a humidified 37°C incubator with 5% CO2. The medium was refreshed every 2–3 days and the cells were passaged at ∼90% confluence by adding the fresh medium, followed by vigorously pipetting the resuspend cells. Of note, the cells were only washed with PBS when a significant number of dead cells were observed.
(§3) The antiproliferation activity of the compounds against the cancer cell lines was evaluated using Cell Counting Kit-8. Briefly, cells (∼1,000 per well) in 100 µl of culture medium were plated in a 96-well plate for 24 h and 100 µl of medium with different concentrations of the tested compounds was added to each well for 48 h. Then 10 μl of CCK8 solution (#CK04, Dojindo) was added and incubated at 37°C for 2 h. The absorbance of each well was measured with a plate reader (BioTeck) at 450 nm. Cell viability was calculated as follows: cell viability (%) = [(As-Ab)/(Ac-Ab)] × 100. Among them, As represents the absorbance of experimental wells, Ab represents the absorbance of blank wells and Ac represents the absorbance of control wells. The experiments were repeated at least three times and IC50 values were determined by plotting a log(inhibitor) v. s normalized response (Variable slope) dose–response curve generated using GraphPad Prism software.

A549 cells = assay: Cell viability assay (CCK-8), A549; assay type: cell-based; settings: A549, 48 h
Procedure: as §2, §3

Hela cells = assay: Cell viability assay (CCK-8), Hela; assay type: cell-based; settings: 48 h
Procedure: as §2, §3

OVCAR-3 cells = assay: Cell viability assay (CCK-8), OVCAR-3; assay type: cell-based; settings: OVCAR-3, 48 h
Procedure: as §2, §3

H1975 cells = assay: Cell viability assay (CCK-8), H1975; assay type: cell-based; settings: H1975, 48 h
Procedure: as §2, §3

HT-29 cells = assay: Cell viability assay (CCK-8), HT-29; assay type: cell-based, human; settings: HT-29, 48 h
Procedure: as §2, §3

HCC827 cells = assay: Cell viability assay (CCK-8), HCC827; assay type: cell-based; settings: HCC827, 48 h
Procedure: as §2, §3

human MAGL = biological target: T1, human MAGL (Homo sapiens, UniProt Q99685); assay: MAGL activity assay (AA-HNA fluorogenic substrate); assay type: biochemical
T1 construct: expressed in transfected cells; host or cells: HEK293T (transient transfection; membrane fraction)
T1 sequence (Q99685 1-303): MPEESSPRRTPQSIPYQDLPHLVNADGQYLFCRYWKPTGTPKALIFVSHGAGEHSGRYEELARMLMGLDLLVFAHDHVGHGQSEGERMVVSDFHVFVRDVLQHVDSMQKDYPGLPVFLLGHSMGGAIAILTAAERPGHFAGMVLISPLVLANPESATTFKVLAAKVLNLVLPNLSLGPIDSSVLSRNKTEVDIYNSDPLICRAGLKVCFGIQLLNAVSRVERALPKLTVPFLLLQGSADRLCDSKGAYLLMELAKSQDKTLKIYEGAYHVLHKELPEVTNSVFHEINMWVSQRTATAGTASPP
Procedure, shortened: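 Membranes from transiently transfected HEK293T cells overexpressing MAGL were preincubated with inhibitor for 30 min in 40 mM HEPES pH 7.5 with 0.1 mg/ml BSA. AA-HNA substrate was then added (10 µl of 200 µM stock), and fluorescence was read every minute for 30 min. Activity was taken from the slope between 5 and 15 min.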

B16-F10 cells = assay: Cell viability assay (CCK-8), B16-F10; assay type: cell-based; settings: B16-F10, 48 h, CCK-8
Procedure: as §2, §3

human ABHD6 = biological target: T2, human ABHD6 (Homo sapiens, UniProt Q9BV23); assay: ABHD6 activity assay (AA-HNA fluorogenic substrate); assay type: biochemical
T2 construct: expressed in transfected cells; host or cells: HEK293T (transient transfection; membrane fraction)
T2 sequence (Q9BV23 1-337): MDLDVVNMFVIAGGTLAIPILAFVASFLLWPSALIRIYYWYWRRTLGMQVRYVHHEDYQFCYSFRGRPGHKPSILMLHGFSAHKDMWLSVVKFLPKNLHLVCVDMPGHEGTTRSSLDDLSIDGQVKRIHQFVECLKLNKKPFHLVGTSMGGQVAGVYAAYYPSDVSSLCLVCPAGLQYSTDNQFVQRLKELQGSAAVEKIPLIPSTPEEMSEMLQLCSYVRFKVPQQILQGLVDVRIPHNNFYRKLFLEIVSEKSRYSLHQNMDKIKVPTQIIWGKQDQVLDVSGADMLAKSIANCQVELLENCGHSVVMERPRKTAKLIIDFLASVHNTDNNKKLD
Procedure, shortened: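 Membranes from HEK293T cells transiently overexpressing human ABHD6 (50 μg/ml final) were preincubated 30 min with inhibitor in 40 mM HEPES pH 7.5, 0.1 mg/ml BSA, 5% DMSO. Hydrolysis of 200 µM AA-HNA was followed by fluorescence for 30 min, activity taken as the 5–15 min slope.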

ABHD6 in cancer cells = assay: Competitive ABPP in cancer cell lysates: ABHD6 band; assay type: biochemical; settings: 10 μM preincubation, A431 and B16-F10 cells
Procedure: as §1

human ABHD12 = biological target: T3, human ABHD12 (Homo sapiens, UniProt Q8N2K0); assay: ABHD12 activity by competitive ABPP with FP-TAMRA; assay type: biochemical; settings: 100 µM compound; competitive ABPP with probe FP-TAMRA (250 nM); read-out: ABHD12 Inhibition (%)
T3 construct: expressed in transfected cells; host or cells: HEK293T (transient transfection; membrane fraction)
T3 sequence (Q8N2K0 1-398): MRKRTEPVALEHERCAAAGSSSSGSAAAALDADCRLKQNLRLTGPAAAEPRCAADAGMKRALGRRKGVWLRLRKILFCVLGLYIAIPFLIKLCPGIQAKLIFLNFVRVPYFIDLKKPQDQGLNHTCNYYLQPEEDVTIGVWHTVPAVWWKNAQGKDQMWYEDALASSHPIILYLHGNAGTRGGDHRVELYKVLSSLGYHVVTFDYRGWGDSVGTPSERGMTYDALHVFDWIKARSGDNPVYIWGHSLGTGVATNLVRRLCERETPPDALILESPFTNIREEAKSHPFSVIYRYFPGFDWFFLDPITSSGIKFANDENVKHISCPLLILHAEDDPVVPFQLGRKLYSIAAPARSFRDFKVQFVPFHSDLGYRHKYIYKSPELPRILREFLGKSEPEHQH
Procedure, shortened: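 Membrane fractions of HEK293T cells transiently overexpressing human ABHD12 (1 mg/ml) preincubated with inhibitor or DMSO for 30 min at room temperature, then labelled with FP-TAMRA (250 nM final) for 20 min. Quenched samples resolved by SDS-PAGE and read by in-gel fluorescence scanning (Cy3 settings).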

[2] = system: serine hydrolases labeled by FP-TAMRA in mouse brain membrane proteome; assay: Competitive ABPP selectivity assay, mouse brain membrane proteome; assay type: biochemical; settings: 100 µM, FP-TAMRA 250 nM
Procedure: Mouse brains were dounce homogenized lysis buffer (20 mM HEPES, 2 mM DTT, 1 mM MgCl2, 25 U/mL benzonase) and incubated on ice for 15 min, followed by low-speed spin (2,500 g, 3 min, 4 C) to remove debris. The supernatant was subjected to ultracentrifugation (100,000 g, 45 min, 4°C) to generate the cytosolic fraction in the supernatant, as well as the membrane fraction as a pellet. After removal of the soluble supernatant, the pellet was resuspended in storage buffer (20 mM HEPES, 2 mM DTT) by pipetting. Total protein concentrations in membrane and soluble fractions were determined using a Qubit protein assay (Invitrogen). The obtained samples were stored at −80°C until further use.
The competitive ABPP selectivity assay was performed according to the previously reported protocol. Briefly, mouse brain membrane proteome (2 mg/ml, 20 µl) was preincubated for 30 min with 0.5 µl of DMSO (vehicle) or inhibitor (100 μM, finial concentration). […] The reactions were then quenched by 10 µl sample buffer (×4). The obtained samples were directly loaded and resolved on SDS-PAGE gel (10% acrylamide). The gels were then scanned and analyzed using a ChemiDoc MP system (Cy3 settings, BioRad). All the samples were measured and duplicated.

[3] = 100 µM, AA-HNA substrate assay, Supplementary Table 2, read-out: ABHD6 Inhibition (%)
[4] = 100 µM, AA-HNA substrate assay, Supplementary Table 1, read-out: MAGL Inhibition (%)

Compound: O=C(OC(C(F)(F)F)C(F)(F)F)N1CCC(C(O)(c2ccc3c(c2)OCO3)c2ccc3c(c2)OCO3)CC1 [KML29, reference compound]
fluorescent band of MAGL (∼33 kDa) in ABPP gels [1]: competed away
Antiproliferation activity (pIC50 ± SEM) A431 (A431 cells): <5
Antiproliferation activity (pIC50 ± SEM) A549 (A549 cells): <5
Antiproliferation activity (pIC50 ± SEM) Hela (Hela cells): <5
Antiproliferation activity (pIC50 ± SEM) OVCAR-3 (OVCAR-3 cells): <5
Antiproliferation activity (pIC50 ± SEM) H1975 (H1975 cells): <5
Antiproliferation activity (pIC50 ± SEM) HT-29 (HT-29 cells): 5.0 ± 0.3
Antiproliferation activity (pIC50 ± SEM) HCC827 (HCC827 cells): <5
pIC50 (human MAGL; 30 min preincubation, dose-response curve, read-out: IC50 (MAGL, AA-HNA assay)): 7.06
effect on fluorescent signal of AA-HNA hydrolysis by MAGL (human MAGL; preincubation with 1 µM): significantly reduced the fluorescent signal to the background level; also recorded: reduction of the fluorescent signal
Antiproliferation activity (pIC50 ± SEM) B16-F10 (B16-F10 cells): 5.0 ± 0.2

effect on fluorescent signal of AA-HNA hydrolysis by ABHD6 (human ABHD6; 10 µM): reduction of the fluorescent signal
Compound: O=C(N1CCCCC1c1ccccc1)n1cc(-c2ccc(-c3cccc(CO)c3)cc2)nn1 (stereo not shown) [KT182, reference compound]
labeling of ABHD6 (∼32 kDa) (ABHD6 in cancer cells): disappeared

Compound: Cc1cc2c(C(C)C)c(O)c(O)c(C=O)c2c(O)c1-c1c(C)cc2c(C(C)C)c(O)c(O)c(C=O)c2c1O [compound 34, Gossypol Acetate]
activity at 100 µM (human ABHD12): 43.7%
activity at 100 µM (human ABHD6; [3]): 26.3%
selectivity profile over serine hydrolases [2]: broad-spectrum inhibitors that cross-reacted with multiple serine hydrolases
activity at 100 µM (human MAGL; [4]): 35.2%

activity (human ABHD12): 119%
activity (human ABHD6; [3]): 115%
activity (human MAGL; [4]): 41.3%
Compound: O=C(CCc1ccc(O)cc1)c1c(O)cc(O)cc1O [compound 66, Dihydronaringenin]
selectivity profile over serine hydrolases [2]: broad-spectrum inhibitors that cross-reacted with multiple serine hydrolases

Compound: O=c1c(O)c(-c2ccc(O)c(O)c2)oc2cc(O)cc(O)c12 [compound 70, Quercetin]
activity at 100 µM (human ABHD12): 75.1%
activity at 100 µM (human ABHD6; [3]): 48.6%
selectivity profile over serine hydrolases [2]: broad-spectrum inhibitors that cross-reacted with multiple serine hydrolases
activity at 100 µM (human MAGL; [4]): 42%
